From patent publication US11382902B2, “Treatment of cancer by stimulation of IL-12 production” (Macrophage Pharma Limited, priority 2017, dated 2022)

Assays:
p38 MAPK = p38 MAPK (Homo sapiens, UniProt Q16539); experiment: Inhibition of p38 MAPK; assay type: biochemical
[1] = test system: IL-12p70 production in PBMCs stimulated with LPS; experiment: Stimulation of IL-12p70 in human PBMCs stimulated with LPS (ELISA / multiplex immunoassay); assay type: cell-based; settings: PBMC, LPS 1 μg/mL, 72 hrs culture, read-out: Stimulation of IL-12p70 in PBMC's stimulated with LPS EC50
Description: (§1) Human PBMCs from six healthy donors were isolated from whole blood. PBMCs were resuspended in RPMI-10 at 1×10^6/mL and plated at a density of 2×10^5 per well (200 μL) in 96-well round bottom culture plates. Treatments or reference controls at different concentrations were prepared in DMSO according to client/supplier instruction and added directly to wells at a final volume of 0.2 μL per well (1:1000). After 2 hours, LPS was added to the culture (1 μg/mL final, 10 μL per well). Cells were cultured for 72 hrs at 37° C. and 5% CO2. Cell-free supernatants were collected at the end of culture period, transferred to new 96-well plates and frozen at −80° C. prior to assessment of IFN-γ, IL-10, IL-12p70 and TNF-α by ELISA and multiplex immunoassay.
(§2) Cultures were performed in triplicate to provide technical replicates and PBMCs from six healthy donors were included to provide biological replication.
(§3) All test and reference substances were formulated at 10 mM stock concentration in anhydrous DMSO, filtered and frozen in aliquots. Immediately prior to addition to assay, stock solutions were diluted in DMSO to prepare solutions at 1000 times the final required concentration. All final formulations were freshly prepared and kept sterile and light protected prior to the addition in cultures.
(§4) ELISA plates were read at 450 nm using an Infinite F50 (Tecan) absorbance reader and Magellan™ reader control and data analysis software. Multiplex immunoassays were read using a Luminex MAGPIX multiplexing system and ProcartaPlex Analyst 1.0 software. Graphs were prepared using Graphpad Prism (v6.0). Data were normalised to mean of respective vehicle control group (100%) within each biological replicate to account for donor variation.

[2] = test system: IFN-γ production in PBMCs stimulated with LPS; experiment: Stimulation of IFN-γ in human PBMCs stimulated with LPS (ELISA / multiplex immunoassay); assay type: cell-based; settings: LPS 1 μg/mL, 72 hrs culture
Description: as §1, §2, §3, §4

[3] = test system: IL10 production in PBMCs stimulated with LPS; experiment: Inhibition of IL10 in human PBMCs stimulated with LPS (ELISA / multiplex immunoassay); assay type: cell-based; settings: for IC50: PBMC, human PBMCs, LPS 1 μg/mL, 72 hrs culture, read-out: Inhibition of IL10 in PBMC's stimulated with LPS IC50
Description: as §1, §2, §3, §4

[4] = versus 6-Amino-5-(2,4-difluorobenzoyl)-1-[2,6-difluorophenyl]pyridin-2(1H)-one and PH797804

p38 MAPK, sequence (Q16539 whole entry): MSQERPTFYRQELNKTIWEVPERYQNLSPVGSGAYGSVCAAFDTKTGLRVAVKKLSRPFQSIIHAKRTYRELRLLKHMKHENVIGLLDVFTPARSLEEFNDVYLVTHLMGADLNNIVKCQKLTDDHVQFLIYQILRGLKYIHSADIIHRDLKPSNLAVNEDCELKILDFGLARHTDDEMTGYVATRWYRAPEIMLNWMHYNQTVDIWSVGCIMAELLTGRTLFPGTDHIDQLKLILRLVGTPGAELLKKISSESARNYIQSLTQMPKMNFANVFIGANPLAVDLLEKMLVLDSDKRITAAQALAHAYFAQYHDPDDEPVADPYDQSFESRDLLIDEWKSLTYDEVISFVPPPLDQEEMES

| EC50 (p38 MAPK) | Fold less potent inhibitory activity against p38 MAPK than the reference inhibitors (p38 MAPK; [4]) | SMILES | EC50 [1] | Stimulation of INF-γ in PBMCs stimulated with LPS EC50 (nM) [2] | IC50 [3] | EC50 ([2]; PBMC, read-out: Stimulation of INF-γ in PBMCs stimulated with LPS EC50) | IL10 production inhibited at concentrations fold lower than conventional p38 MAPK inhibitors [3, 4] |
| --- | --- | --- | --- | --- | --- | --- | --- |
| < 1 nM |  | Nc1c(C(=O)c2ccc(F)cc2F)ccc(=O)n1-c1c(F)cccc1F [6-Amino-5-(2,4-difluorobenzoyl)-1-[2,6-difluorophenyl]pyridin-2(1H)-one] | > 300 nM | No stimulation | 10 nM |  |  |
|  |  | CNC(=O)c1ccc(C)c(-n2c(C)cc(OCc3ccc(F)cc3F)c(Br)c2=O)c1 [PH797804, 3-[3-Bromo-4-[(2,4-difluorophenyl)methoxy]-6-methyl-2-oxo-1(2H)-pyridinyl]-N,4-dimethyl-benzamide] | > 300 nM | No stimulation | 10 nM |  |  |
| 12 nM | 10 fold | C[C@H](NCCc1cc(F)c(-n2c(N)c(C(=O)c3ccc(F)cc3F)ccc2=O)c(F)c1)C(=O)OC(C)(C)C [tert-Butyl N-(2-{4-[6-amino-5-(2,4-difluorobenzoyl)-2-oxopyridin-1(2H)-yl]-3,5-difluorophenyl}ethyl)-L-alaninate] | < 1 nM |  | < 1 nM | 1 nM | at least 10 fold |
